Key:
[1] = Inhibitory concentration against Selectin E in a dynamic flow assay.
[2] = as above; remark: listed apart in the source

SMILES	IC50 [1] [µM]	IC50 [2] [µM]
C[C@@H]1O[C@@H](O[C@@H]2[C@H](CO)OCC[C@H]2O[C@@H]2O[C@@H](CO)[C@H](O)[C@H](O[C@@H](CC3CCCCC3)C(=O)O)[C@@H]2O)[C@@H](O)[C@@H](O)[C@@H]1O [Sodium; (R)-3-cyclohexyl-2-{3,5-dihydroxy-2-hydroxymethyl-6-[2-hydroxymethyl-3-(3,4,5-trihydroxy-6-methyl-tetrahydro-pyran-2-yloxy)-tetrahydro-pyran-4-yloxy]-tetrahydro-pyran-4-yloxy}-propionate]	30	–
COC(=O)CCCCCCCCO[C@@H]1O[C@@H](CO)[C@@H](O[C@@H]2O[C@@H](CO)[C@H](O)[C@H](O[C@@H](CC3CCCCC3)C(=O)O)[C@@H]2O)[C@H](O[C@@H]2O[C@@H](C)[C@@H](O)[C@H](O)[C@@H]2O)[C@@H]1NC(=O)c1ccc(OC)c(OC)c1 [Sialyl Lewis X Analogue]	–	10

Source: BindingDB's records for doi:10.1016/s0960-894x(01)00092-0 (Novartis Pharma, 2001)
